Laboratory results reported in US7960131B2, “Functional genomic pore assay for mixed cell populations” (Wisconsin Alumni Research Foundation, priority 2003, dated 2011).
Numbering of substitutions follows the chain as printed. Several values for one entry are separate records, joined by “and”; a condition that tells them apart may be missing. Identical values can stand only once.

Key:
Format in all cases: cell-based
[1] = target: T1, P2X7-G150R (Homo sapiens, UniProt Q99572, G150R); test: YO-PRO-1 uptake fluorimetric plate assay in transfected HEK 293 cells, P2X7-G150R; conditions: G150R (G474A) mutant, also in more permissive buffer lacking NaCl
T1 construct: expressed in transfected cells
T1 sequence (Q99572 1-595 G150R): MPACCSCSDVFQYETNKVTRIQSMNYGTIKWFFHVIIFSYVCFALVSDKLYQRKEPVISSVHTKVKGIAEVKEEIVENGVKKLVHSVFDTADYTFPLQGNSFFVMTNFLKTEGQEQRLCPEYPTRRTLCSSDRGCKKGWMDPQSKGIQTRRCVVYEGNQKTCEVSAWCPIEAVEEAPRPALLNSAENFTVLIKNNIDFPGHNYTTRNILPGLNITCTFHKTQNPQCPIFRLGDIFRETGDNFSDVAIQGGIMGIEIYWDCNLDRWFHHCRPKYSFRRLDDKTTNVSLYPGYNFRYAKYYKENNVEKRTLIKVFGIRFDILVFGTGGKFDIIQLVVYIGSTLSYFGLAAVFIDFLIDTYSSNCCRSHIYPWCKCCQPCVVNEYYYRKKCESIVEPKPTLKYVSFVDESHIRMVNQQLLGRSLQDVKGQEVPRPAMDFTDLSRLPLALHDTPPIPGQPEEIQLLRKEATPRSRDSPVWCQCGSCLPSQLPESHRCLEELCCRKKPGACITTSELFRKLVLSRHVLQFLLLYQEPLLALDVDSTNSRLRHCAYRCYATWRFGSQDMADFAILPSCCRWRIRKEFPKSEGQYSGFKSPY
Text: (§1) Recombinant Expression and Functional Characterization of Variant P2RX7 Alleles. A pcDNA3 expression vector containing a cloned human P2RX7 cDNA associated with normal pore activity was subjected to point mutagenesis using the Quick Change Kit (Stratagene Inc., city, state) to create the variants P2X7-G150R, P2X7-Q460R, and P2X7-E496A. HEK 293 cells were transfected by the Superfect liposomal method and stable populations were selected by G418 resistance. Expression of P2X7 mRNA and protein in unstimulated transfected HEK cell cultures was verified by RT-PCR and immunoblotting as previously described.
(§2) YO-PRO-1 fluorescence was measured by a Synergy-HT fluorescent plate reader (Biotek, city, state) using X±Y nm excitation and A±B emission filters.

[2] = target: T2, P2X7 wild type (Homo sapiens, UniProt Q99572); test: YO-PRO-1 uptake fluorimetric plate assay in transfected HEK 293 cells, P2X7 wild type; conditions: HEK cells expressing P2X7 wild type, HEPES-buffered saline
T2 construct: expressed in transfected cells
T2 sequence (Q99572 1-595): T1 sequence (Q99572 1-595 G150R) with R150G
Text: as §1, §2

[3] = target: T3, P2X7 (Homo sapiens, UniProt Q99572); test: YO-PRO-1 plate assay of P2X7 agonists with astrocytoma cell line 1321N1; conditions: for YO-PRO-1 fluorescence (485/20, 528/20), single well: 5 × 10^4 1321N1 cells; for YO-PRO-1 fluorescence, average of duplicate wells: 1321N1 cells, agent + YOPRO;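 as to all read-outs here: dye uptake read after 20 min agonist exposure with YO-PRO-1 present, unbound dye removed by washing before reading in a fluorescence plate reader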
T3 construct: host or cells: astrocytoma cell line (the earlier reading names it 1321N1)
T3 sequence (Q99572 1-595): T1 sequence (Q99572 1-595 G150R) with R150G

2′-3′-O-(4-benzoylbenzoyl)-adenosine 5′-triphosphate [Bz-ATP]
agonist stimulated increase in YO-PRO-1 fluorescence [1]: loss of pore function | agonist stimulated increase in YO-PRO-1 fluorescence ([1]; listed as BzATP): no agonist stimulated increase in fluorescence | EC50 [2]: 30 µM | increase of YO-PRO-1 fluorescence by Bz-ATP stimulation [2]: roughly four | YO-PRO-1 fluorescence (485/20, 528/20), single well ([3]; agent 1 μM + YOPRO): 98 and 89 | YO-PRO-1 fluorescence (485/20, 528/20), single well ([3]; agent 3 μM + YOPRO): 188 | YO-PRO-1 fluorescence (485/20, 528/20), single well ([3]; agent 10 μM + YOPRO): 213 | YO-PRO-1 fluorescence (485/20, 528/20), single well ([3]; agent 30 μM + YOPRO): 217 | YO-PRO-1 fluorescence (485/20, 528/20), single well ([3]; agent 100 μM + YOPRO): 223 and 214 | YO-PRO-1 fluorescence (485/20, 528/20), single well ([3]; agent 300 μM + YOPRO): 220 and 232 | YO-PRO-1 fluorescence, average of duplicate wells ([3]; 1 uM): 93.5 | YO-PRO-1 fluorescence, average of duplicate wells ([3]; 3 uM): 188
